Here are results for one molecule from patent US6416642B1, “Method and apparatus for continuous liquid flow in microscale channels using pressure injection, wicking, and electrokinetic injection” (Caliper Technologies Corp., priority 1999, dated 2002).

Each structure is given as a SMILES string.

The assay deals with purinergic, P2Y receptor. The assay can be described thus: Calcium flux assay in continuous-flow microfluidic device (Fluo-3 fluorescence). The settings on record: THP-1 cells loaded with Fluo-3; UTP 0-3 μM; FIG. 13 upper trace. Type of assay: cell-based. On the procedure:
Using a continuous flow format in planar chips using a wick to generate constant pressure driven flow, cells were mixed with an agonist and down-stream fluorescence detectors were used to monitor indicator cells using Fluo-3 (Molecular Probes Inc.) calcium sensitive fluorescent dye as a probe for receptor activation of calcium fluxes. THP-1 cells were loaded with Fluo-3 by incubation with a 4 μM concentration of the Fluo-3 AM (acetoxymethyl ester) in Hank's Balanced Salt Solution(HBSS) containing 20 mM HEPES, pH 7.0, and 1 mg/ml bovine serum albumin. After a 40 minute incubation at 37° C., Syto-6, a fluorescent DNA stain, was added to 2.5 μM, and the cells were incubated for an additional 10 minutes at room temperature. The cells were then washed free of excess dye by pelleting at 300×g for 5 minutes and resuspending and repelleting. The cells were resuspended in Cell Buffer (HBSS containing 20 mM HEPES, pH 7.0, 1 mg/ml BSA and 10% Optiprep). […]
By taking the ratio of the two fluorescent dyes, it is possible to normalize the calcium flux response in the THP-1 cells since the DNA staining intensity is a constant in diploid, resting cells, and thereby quantitate the increase in calcium concentration.

Take `O=c1ccn([C@@H]2O[C@H](COP(=O)(O)OP(=O)(O)OP(=O)(O)O)[C@@H](O)[C@H]2O)c(=O)[nH]1` [UTP]: the “fluorescence of the calcium sensitive dye (intracellular free calcium)” value was “increases with UTP treatment in a dose dependent manner”.
